{"source": "patent US10308682B2", "about": "“Inhibition of tumor growth with aggregates of small molecules” (BRANDEIS UNIVERSITY, priority 2013, dated 2019)", "key": {"[1]": {"tested_on": "HeLa cells", "experiment": "FITC annexin V / PI staining of HeLa cells", "format": "cell-based", "conditions": "400 μM, 36 h", "from_the_text": "To determine the process of cell death induced by the aggregates of 1, we used FITC conjugated annexin V and propidium iodide (PI) to stain the cells (FIG. 3b). Being membrane impermeable, PI discriminates viable cells from late apoptotic or necrotic cells, and FITC conjugated annexin V binds to plasma membrane of apoptotic and necrotic cells as the former ones have extracellular exposed phosphatidylserine and the latter ones lose membrane integrity."}, "[2]": {"experiment": "Thioflavin T fluorescence quantification of aggregates of 1", "format": "physicochemical", "conditions": "ThT emission, PBS buffer"}, "[3]": {"tested_on": "PC12 cells", "experiment": "Intracellular concentration of 1 in PC12 cells by LC-MS", "format": "cell-based", "conditions": "12 h at 37° C.", "description": "FIG. 10 depicts the long term cytotoxicity of 1 on PC12 cells. Related to FIG. 2. (a) MTT viability test of cell incubated with gradient concentration of 1 for up to 7 days without changing medium. Data are presented as mean±SD of three independent experiments. (b) Intracellular concentration of 1 in PC12 cells treated with 1 for 12 h at 37° C. measured by LC-MS (left bar=400 μM; right bar=300 μM). (c) Cells were subcultured and re-seeded with new medium containing the same concentration of 1 (0 for control group and 400 μM for test group) every 4 days. Data are presented as mean±SD of three independent experiments.\nFIG. 21 depicts the intracellular concentration of 1 in PC12 and T98G cells after incubation with 400 μM of 1 for 12 h. Cells in exponential growth phase were seeded in a 10 cm petri dish at 10,000 cell/mL. The cells were allowed to attach for 24 h at 37° C., 5% CO2. The culture medium was removed, and new culture medium containing 1 at 0 or 400 μM was added. After 12 h of incubation, cells were washed with PBS buffer 3 times and collected by cell scraper with 1 mL of PBS buffer. The cell suspension was centrifuged at 600 g for 5 min to obtain a cell pellet. 10 μL of the cell pellet were lysed in 200 μL of water and 200 μL of MeOH. […] The concentration of 1 in the lysate was measured by LC-MS."}}, "data": [{"smiles": "O=C(Cc1ccc2ccccc2c1)N[C@@H](Cc1ccccc1)C(=O)N[C@@H](Cc1ccccc1)C(=O)O", "note": "[Compound 1]", "values": [{"measurement": "process of cell death", "setting": "[1]", "result": "induce apoptosis"}, {"measurement": "threshold concentration for the formation of molecular aggregates", "setting": "[2]", "result": "320 to 340", "unit": "µM"}, {"measurement": "accumulation of 1 in PC12 cells versus HeLa cells", "setting": "[3]", "result": "much less amount of 1 than HeLa cells do"}]}]}
